Reference: patent publication USRE42700E1, “Induction of apoptosis in cancer cells” (Sanford-Burnham Medical Research Institute, priority 2001, dated 2011)
One block for each molecule: values may come before it. Peptide text beside a SMILES is read from it. * marks the point of attachment. Cbz = O=C(OCc1ccccc1)*; CH2F = FC*

How the values were obtained:
[1] = system: human acute megakaryocytic leukemia cell line M07e; assay: M07e apoptosis quantification; format: cell-based
Description: (§1) Apoptosis Quantification: Staining of apoptotic cells was performed as described by Gavreli, Y., et al., (J. Cell. Biol. 119: 493-501 (1992)) and Whitacre, C. M., et al., (Cancer Res. 55: 3697-3701 (1995)). After 3-Cl-AHPC treatment, cells were harvested, washed with PBS and resuspended at 1×10^6 cells/ml. Cell suspensions (50 μl) were stained with […] of acridine orange solution ([…]) in PBS in the dark. Cells displaying fragmented DNA were detected using a fluorescent microscope. Apoptotic cells were also detected using a kit. Cells that incorporated fluorescein labeled deoxyuridine triphosphate were detected using flow cytometry.

[2] = system: acute promyelocytic leukemia (APL); conditions: cited from earlier work
[3] = system: Human Breast Cancer Cells; assay: apoptosis induction / cell death in breast cancer cells (all lines); format: cell-based; conditions: 10 μM
[4] = system: leukemic blasts from patients (AML or CML in blast crisis); assay: apoptosis in primary cultures of patient leukemic blasts; format: cell-based, human
Description: (§2) Cell Growth: IL-3-transfected M07e cells have been described by Thacker, D. J., et al., Leukemia 8: 871-877 (1994). Cells were grown in RPMI supplemented with 5 percent heat-inactivated fetal bovine serum (FBS) and 25 μg/ml gentamycin in a […], 5% CO2, and 100% humidity environment. Leukemic cells were obtained from patients who met the criteria for the diagnosis of AML or CML in blast crisis (see Table 1). Studies were approved by the Wayne State University Institutional Review Board. Informed consent was obtained from all patients. Leukemic blasts from patients were isolated using Ficoll hypaque. Cells at the interface between plasma and red blood cells were diluted with sterile PBS, then layered over Ficoll hypaque (1.077 density), and the leukemic cells collected at the interface. The sample to be studied represented greater than 90% blasts. The patient leukemia samples were grown in RPMI medium supplemented with 10% FBS, gentamycin (25 μg/ml), IL-3 (20 ng/ml), SCF (25 ng/ml), GM-CSF (20 ng/ml) and G-CSF (20 ng/ml). Cell growth was assessed using a cell proliferation kit.
as §1

[5] = system: human acute megakaryocytic leukemia cell line M07e; assay: M07e cell growth / proliferation; format: cell-based; conditions: varying concentrations over time
Description: as §2

[6] = system: ERK, p38 and JNK kinases in M07e and patient leukemic cells; assay: activation of MAPK pathways (phospho-p38, phospho-ERK, phospho-JNK Western blots); format: cell-based, human; conditions: 50 μM inhibitor
Description: (§3) Western Blots: Western blots were performed according to the protocol of Sheikh, M. S., et al., (Oncogene, 9: 3407-3415 (1994)). Logarithmically growing cells were treated with 3-Cl-AHPC for various times and cells were harvested and lysed in Laemmli lysis buffer (0.5 M Tris-HCl, pH 6.8, 0.002M EDTA, 10% glycerol, 10% sodium dodecyl sulfate (SDS), and 5% β-mercaptoethanol). Protein lysates (50 μg/lane) were electrophoresed on 12% SDS-polyacrylamide gels and transferred to nitrocellulose membranes. Membranes were blocked with 5% nonfat dried milk in PBS/0.5% Tween 20 and then incubated with the appropriate antibodies. Horseradish peroxidase-conjugated rabbit anti-mouse IgG was used as the secondary antibody, and bands were developed using the Amersham ECL non-radioactive method.

Bcl-XL in leukemic cells = assay: Bcl-XL cleavage by Western blot; format: cell-based, human; conditions: 50 μM inhibitor with 1 μM 3-Cl-AHPC, 24 hours
Description: as §3

[7] = system: M07e or patient leukemia cells; assay: effect of kinase inhibitors on 3-Cl-AHPC-mediated apoptosis; format: cell-based, human; conditions: at concentrations inhibiting p38 or ERK activation
Description: After 3-Cl-AHPC treatment, cells were harvested, washed with PBS and resuspended at 1×10^6 cells/ml. Cell suspensions (50 μl) were stained with 5 ml of acridine orange solution (100 mg/ml) in PBS in the dark. Cells displaying fragmented DNA were detected using a fluorescent microscope. Apoptotic cells were also detected using a kit. Cells that incorporated fluorescein labeled deoxyuridine triphosphate were detected using flow cytometry.

AML cells = assay: growth of AML cells in SCID mice; format: in vivo, mouse
RARβ = RARβ (Homo sapiens, UniProt P10826); conditions: 1 μM; cited from earlier work
Sequence of RARβ (P10826 whole entry, species assumed): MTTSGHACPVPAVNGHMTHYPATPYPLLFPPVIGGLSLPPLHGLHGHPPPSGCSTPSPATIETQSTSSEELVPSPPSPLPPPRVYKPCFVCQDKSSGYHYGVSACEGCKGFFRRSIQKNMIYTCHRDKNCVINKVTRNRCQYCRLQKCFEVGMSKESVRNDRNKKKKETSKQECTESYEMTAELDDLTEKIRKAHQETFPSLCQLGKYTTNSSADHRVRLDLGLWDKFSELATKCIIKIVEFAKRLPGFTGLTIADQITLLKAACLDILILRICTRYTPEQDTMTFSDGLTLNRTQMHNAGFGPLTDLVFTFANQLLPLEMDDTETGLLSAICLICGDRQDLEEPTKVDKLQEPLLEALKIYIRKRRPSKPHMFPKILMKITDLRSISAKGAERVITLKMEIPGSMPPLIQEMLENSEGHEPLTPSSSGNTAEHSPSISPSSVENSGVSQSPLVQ

cell line ALL-REH = conditions: ALL-REH cells; cited from earlier work
RXRs = conditions: cited from earlier work
[8] = system: p38 and JNK kinases (HL-60R human leukemia cell line); conditions: cited from earlier work
[9] = system: ALL cells obtained from patients; conditions: background section; cited from earlier work
RARγ = RARγ (Homo sapiens, UniProt P13631); conditions: 1 μM; cited from earlier work
Sequence of RARγ (P13631 whole entry, species assumed): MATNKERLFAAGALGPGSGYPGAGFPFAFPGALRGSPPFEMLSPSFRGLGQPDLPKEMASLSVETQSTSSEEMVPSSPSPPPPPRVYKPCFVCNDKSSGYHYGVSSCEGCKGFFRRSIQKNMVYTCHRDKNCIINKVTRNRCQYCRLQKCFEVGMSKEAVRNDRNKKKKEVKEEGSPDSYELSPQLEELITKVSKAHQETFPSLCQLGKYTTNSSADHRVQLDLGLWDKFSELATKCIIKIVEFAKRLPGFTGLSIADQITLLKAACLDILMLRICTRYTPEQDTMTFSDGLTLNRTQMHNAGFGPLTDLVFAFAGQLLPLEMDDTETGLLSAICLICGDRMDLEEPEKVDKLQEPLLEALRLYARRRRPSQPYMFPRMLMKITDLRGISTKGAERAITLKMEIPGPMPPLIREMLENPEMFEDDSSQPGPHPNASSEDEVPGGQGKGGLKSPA

cell line K562 = conditions: cited from earlier work
RAR subtype α = RAR subtype α (Homo sapiens, UniProt P10276); conditions: cited from earlier work
Sequence of RAR subtype α (P10276 whole entry): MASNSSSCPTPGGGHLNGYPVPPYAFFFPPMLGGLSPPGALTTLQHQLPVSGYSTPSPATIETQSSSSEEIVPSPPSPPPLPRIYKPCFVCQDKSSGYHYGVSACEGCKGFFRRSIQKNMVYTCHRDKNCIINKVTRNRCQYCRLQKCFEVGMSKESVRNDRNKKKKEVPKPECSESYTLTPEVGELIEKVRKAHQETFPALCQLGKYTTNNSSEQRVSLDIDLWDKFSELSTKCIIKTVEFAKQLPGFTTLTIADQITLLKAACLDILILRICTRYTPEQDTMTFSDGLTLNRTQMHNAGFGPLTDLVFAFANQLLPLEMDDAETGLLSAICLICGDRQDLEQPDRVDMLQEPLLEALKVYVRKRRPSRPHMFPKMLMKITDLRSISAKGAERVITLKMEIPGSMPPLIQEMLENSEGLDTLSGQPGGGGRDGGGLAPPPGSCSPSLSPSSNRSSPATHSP

[10] = system: human leukemia cell line HL-60R; conditions: cited from earlier work
[11] = system: mouse mammary adenocarcinoma 16/C; assay: mouse mammary adenocarcinoma 16/C in syngeneic female C3H mice
Description: The ability of 3-Cl-AHPC to inhibit the in vivo growth of breast carcinoma cells was tested using syngeneic mouse mammary and human breast adenocarcinoma SCID xenograft models.

[12] = total dose 133 mg/kg, days 1, 2, 5-9
[13] = total dose 150 mg/kg, days 1, 2, 7-9

SMILES: CC1=C(/C=C/C(C)=C/C=C/C(C)=C/C(=O)O)C(C)(C)CCC1 [tRA, trans-retinoic acid, reference compound]
inhibition of proliferation [1]: did not significantly inhibit M07e proliferation (FIG. 2C) or induce apoptosis | patients achieving a complete remission [2]: 90% | killing of breast carcinoma cells [3]: did not kill the cells | induction of apoptosis ([4]; 1 μM, 11 primary cultures): did not induce apoptosis | proliferation and apoptosis of primary human AML cultures (FIG. 13) ([4]; non-APL AML samples): had no effect | inhibition of proliferation [5]: did not significantly inhibit M07e proliferation

melting point: 276 to 278 °C
SMILES: O=C(O)/C=C/c1ccc(-c2ccc(O)c(C34CC5CC(CC(C5)C3)C4)c2)cc1Cl [Example 2, (E)-4-[3-(1-Adamantyl)-4-hydroxyphenyl]-2-chlorocinnamic acid]

melting point: 232 to 234 °C
SMILES: Cc1cc(/C=C/C(=O)O)ccc1-c1ccc(O)c(C23CC4CC(CC(C4)C2)C3)c1 [Example 3, (E)-4-[3-(1-Adamantyl)-4-hydroxyphenyl]-3-methylcinnamic acid]

SMILES: COC(=O)C[C@H](NC(=O)[C@H](C)NC(=O)[C@@H](NC(=O)OCc1ccccc1)C(C)C)C(=O)CF [ZVAD-fmk] (Cbz-Val-Ala-Asp(OMe)-CH2F)
effect on 3-Cl-AHPC activation of JNK [6]: not inhibited | effect on 3-Cl-AHPC activation of p38 and ERK [6]: prevent their activation by 3-Cl-AHPC | effect on 3-Cl-AHPC-mediated Bcl-XL cleavage (Bcl-XL in leukemic cells): inhibited Bcl-XL cleavage

melting point: 127 to 129 °C
SMILES: Cc1cc(/C=C/C(=O)O)cc(C)c1-c1ccc(O)c(C23CC4CC(CC(C4)C2)C3)c1 [Example 4, (E)-4-[3-(1-Adamantyl)-4-hydroxyphenyl]-3,5-dimethylcinnamic acid]

SMILES: COc1cccc(-c2cc(=O)c3ccccc3o2)c1N [PD98059]
effect on 3-Cl-AHPC-mediated apoptosis [7]: did not inhibit or enhance 3-Cl-AHPC-mediated apoptosis

SMILES: O=C(O)c1ccc2cc(-c3ccc(O)c(C45CC6CC(CC(C6)C4)C5)c3)ccc2c1 [AHPN, 6-[3-(1-adamantyl)-4-hydroxyphenyl]-2-naphthalenecarboxylic acid]
treated mice tumor-free more than 150 days (considered cured) (AML cells; five treated mice): one out of the five | Tumor growth inhibition (AML cells; treated SCID mice): 85.7% | growth delay (AML cells; treated SCID mice): 21 days | log cell kill (AML cells; treated SCID mice): 2.1 | binding and transactivation of RARβ (RARβ): binds and transactivates | caspase 3 activity (cell line ALL-REH): stimulation of caspase 3 activity | binding to the RXRs (RXRs): does not bind | p38 and JNK activation ([8]; HL-60R human leukemia cell line): p38 and JNK activation | time to activation of the p38 and JNK kinases [8]: ≤ 1 h | apoptosis of ALL cells obtained from patients [9]: induced apoptosis | binding and transactivation of RARγ (RARγ): binds and transactivates | apoptosis of K562 cells (resistant to tRA) (cell line K562): results in apoptosis | binding and transactivation of RAR subtype α (RAR subtype α): extremely poor binder and transactivator | apoptosis of HL-60R cells (lack functional RARs) [10]: results in apoptosis | % body wt. loss ([11]; total dose 99 mg/kg, days 1-9): −4% | Drug deaths ([11]; total dose 99 mg/kg, days 1-9): 0/5 | T/C % ([11]; total dose 99 mg/kg, days 1-9): 47% | % body wt. loss [11, 12]: −11% | Drug deaths [11, 12]: 0/5 | Log cell kill [11, 12]: 0.49 | T/C % [11, 12]: 39% | % body wt. loss [11, 13]: −21% | Drug deaths [11, 13]: 1/5 | Log cell kill [11, 13]: 0.63 | T/C % [11, 13]: 30%
